Test results published in patent publication US20250122191A1, “COMPOUNDS AS BCL-2 INHIBITORS” (Fochon Biosciences, Ltd, priority 2021, published 2025).
Like-named read-outs stand apart in the source and are kept apart here.

Experiments:
Format in all cases: cell-based
Toledo cells = test: Cell proliferation assay (MTS), Toledo cells; conditions: 72 h
How it was run: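 Toledo cells (RPMI-1640, 10% FBS) seeded at 30000 cells/well, rested 4 h, then exposed 72 h at 37 °C, 5% CO2 to compound at nine final concentrations, 1.5–10000 nM. Viability by MTS (2 h), absorbance at 490 nm. IC50 from the concentration-response.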

RS4;11-BCL-2 G101V cells = test: Cell proliferation assay (MTS), RS4;11-BCL-2 G101V engineered cells; conditions: 120 h, read-out: RS4, 11 BCL2-G101V IC50
How it was run: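 Cells were plated, allowed to settle 4 h (G101V, F104L) or 24 h (D103E, D103Y), and treated with serially diluted compound (10000 down to 1.5 nM). After 120 h or 72 h respectively at 37 °C, MTS was added for 2 h and absorbance at 490 nm gave IC50 values.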

RS4;11-BCL-2 F104L cells = test: Cell proliferation assay (MTS), RS4;11-BCL-2 F104L engineered cells; conditions: 120 h, read-out: RS4, 11 BCL2-F104L IC50
From the text: MTS testing kit was purchased from Promega (Madison, WI, USA). The RPMI-1640, Fetal bovine serum and Penicillin-Streptomycin were purchased from BI (Biological Industries, Beit Haemek, Israel). Puromycin was purchased from Beyotime (shanghai, China). Dimethyl sulfoxide (DMSO) was purchased from Sigma (St. Louis., MO, USA). RS4;11-BCL-2 G101V (Cobioer Lot. #: CBD2021063013P4), RS4;11-BCL-2 D103E (Cobioer Lot. #: CBD2021063013P4), RS4;11-BCL-2 D103Y (Cobioer Lot. #: CBD2022012101P4) and RS4;11-BCL-2 F104L (Cobioer Lot. #: CBD2021063014P4) cells were cultured in RPMI1640 supplemented with 1 ug/mL puromycin, 100 U/mL Penicillin-Streptomycin and 10% FBS.
To investigate whether a compound is able to inhibit the activity of BCL-2 mutation in cells, a mechanism-based assay using engineered cell lines stably overexpressing BCL-2 mutation (RS4;11-BCL-2 G101V, RS4;11-BCL-2 D103E, RS4;11-BCL-2 D103Y, and RS4;11-BCL-2 F104L) was developed. In this assay, the inhibition of BCL-2 mutation was reflected by the inhibition of cell proliferation of engineered RS4;11 cells. Cells were plated into 96-well plates at optimized cell density (RS4;11-BCL-2 G101V: 5000 cells/well; RS4;11-BCL-2 D103E: 7500 cells/well; RS4;11-BCL-2 D103Y: 7500 cells/well; RS4;11-BCL-2 F104L: 5000 cells/well). Plates were incubated at 37° C., with 5% CO2 for 4 h (RS4;11-BCL-2 G101V, RS4;11-BCL-2 F104L) and 24 h (RS4;11-BCL-2 D103E, RS4;11-BCL-2 D103Y), respectively. Compounds were serially diluted and added to the plates with the final concentrations of 10000, 3333.3, 1111.1, 370.4, 123.5, 41.2, 13.7, 4.6 and 1.5 nM. Plates were incubated at 37° C., with 5% CO2 for 120 h (RS4; 11-BCL-2 G101V, RS4; 11-BCL-2 F104L) and 72 h (RS4;11-BCL-2 D103E, RS4;11-BCL-2 D103Y), respectively. 20 μl MTS was added into each well and the plates were incubated at 37° C., with 5% CO2 exactly for 2 h. The absorbance was measured by a microplate reader at 490 nm. IC50 values were calculated using GraphPad Prism 8.0 software.

Structure (SMILES)	IC50 (Toledo cells; Homo sapiens) [nM]	IC50 (RS4;11-BCL-2 G101V cells; Homo sapiens) [nM]	IC50 (RS4;11-BCL-2 F104L cells; Homo sapiens) [nM]	IC50 (Toledo cells) [nM]	IC50 (RS4;11-BCL-2 G101V cells) [nM]	IC50 (RS4;11-BCL-2 F104L cells) [nM]
Cc1cc(CN2CCN(C3CC4(CCN(c5ccc(C(=O)NS(=O)(=O)c6cnc(NC[C@H]7CC[C@](C)(O)CC7)c([N+](=O)[O-])c6)c(Oc6cnc7[nH]cc(F)c7c6)c5)CC4)C3)[C@H](c3ccccc3C(C)C)C2)ccn1 [Example 356, 2-((3-fluoro-1H-pyrrolo[2,3-b]pyridin-5-yl)oxy)-N-((6-((((1r,4r)-4-hydroxy-4-methylcyclohexyl)methyl)amino)-5-nitropyridin-3-yl)sulfonyl)-4-(2-((R)-2-(2-isopropylphenyl)-4-((2-methylpyridin-4-yl)methyl)piperazin-1-yl)-7-azaspiro[3.5]nonan-7-yl)benzamide]	1	1	2	–	–	–
COc1nc2[nH]cc(F)c2cc1Oc1cc(N2CCC3(CC2)CC(N2CCN(Cc4ccc5c(c4)OCO5)C[C@H]2c2ccccc2C(C)C)C3)ccc1C(=O)NS(=O)(=O)c1cnc(NC[C@H]2CC[C@](C)(O)CC2)c([N+](=O)[O-])c1 [Example 353, 4-(2-((R)-4-(benzo[d][1,3]dioxol-5-ylmethyl)-2-(2-isopropylphenyl)piperazin-1-yl)-7-azaspiro [3.5]nonan-7-yl)-2-((3-fluoro-6-methoxy-1H-pyrrolo[2,3-b]pyridin-5-yl)oxy)-N-((6-((((1r,4r)-4-hydroxy-4-methylcyclohexyl)methyl)amino)-5-nitropyridin-3-yl)sulfonyl)benzamide]	1	1	1	–	–	–
CC(C)c1ccccc1[C@@H]1CN(Cc2ccc(Cl)cc2)CCN1C1CC2(CCN(c3ccc(C(=O)NS(=O)(=O)c4cnc(NCC5CCC(C)(O)CC5)c([N+](=O)[O-])c4)c(Oc4cnc5[nH]cc(F)c5c4)c3)CC2)C1 (stereo partly drawn) [Example 229, 4-(2-((R)-4-(4-chlorobenzyl)-2-(2-isopropylphenyl)piperazin-1-yl)-7-azaspiro[3.5]nonan-7-yl)-2-((3-fluoro-1H-pyrrolo[2,3-b]pyridin-5-yl)oxy)-N-((6-((((1r,4r)-4-hydroxy-4-methylcyclohexyl)methyl)amino)-5-nitropyridin-3-yl)sulfonyl)benzamide]	–	–	–	1	1	1
CC(C)c1ccccc1[C@@H]1CN(Cc2ccc(F)cc2)CCN1C1CC2(CCN(c3ccc(C(=O)NS(=O)(=O)c4cnc(NC[C@H]5CC[C@](C)(O)CC5)c([N+](=O)[O-])c4)c(Oc4cnc5[nH]cc(F)c5c4)c3)CC2)C1 [Example 232, 2-((3-fluoro-1H-pyrrolo[2,3-b]pyridin-5-yl)oxy)-4-(2-((R)-4-(4-fluorobenzyl)-2-(2-isopropylphenyl)piperazin-1-yl)-7-azaspiro[3.5]nonan-7-yl)-N-((6-((((1r,4r)-4-hydroxy-4-methylcyclohexyl)methyl)amino)-5-nitropyridin-3-yl)sulfonyl)benzamide]	1	1	1	–	–	–
CC(C)c1ccccc1[C@@H]1CN(Cc2ccc3c(c2)OCO3)CCN1C1CC2(CCN(c3ccc(C(=O)NS(=O)(=O)c4cnc(NC[C@H]5CC[C@](C)(O)CC5)c([N+](=O)[O-])c4)c(Oc4cnc5[nH]cc(F)c5c4)c3)CC2)C1 [Example 354, 4-(2-((R)-4-(benzo[d][1,3]dioxol-5-ylmethyl)-2-(2-isopropylphenyl)piperazin-1-yl)-7-azaspiro[3.5]nonan-7-yl)-2-((3-fluoro-1H-pyrrolo[2,3-b]pyridin-5-yl)oxy)-N-((6-((((1r,4r)-4-hydroxy-4-methylcyclohexyl)methyl)amino)-5-nitropyridin-3-yl)sulfonyl)benzamide]	1	1	1	–	–	–
COc1nc2[nH]cc(F)c2cc1Oc1cc(N2CCC3(CC2)CC(N2CCOC[C@H]2c2ccccc2C(C)C)C3)ccc1C(=O)NS(=O)(=O)c1cnc(NC[C@H]2CC[C@](C)(O)CC2)c([N+](=O)[O-])c1 [Example 87, 2-((3-fluoro-6-methoxy-1H-pyrrolo[2,3-b]pyridin-5-yl)oxy)-N-((6-((((1r,4r)-4-hydroxy-4-methylcyclohexyl)methyl)amino)-5-nitropyridin-3-yl)sulfonyl)-4-(2-((R)-3-(2-isopropylphenyl)morpholino)-7-azaspiro[3.5]nonan-7-yl)benzamide]	1	1	1	–	–	–
CCOc1nc2[nH]cc(F)c2cc1Oc1cc(N2CCC3(CC2)CC(N2CCN(Cc4ccc(C5CC5)c(OC)c4)C[C@H]2c2ccccc2C(C)C)C3)ccc1C(=O)NS(=O)(=O)c1cnc(NC[C@H]2CC[C@](C)(O)CC2)c([N+](=O)[O-])c1 [Example 6, 4-(2-((R)-4-(4-cyclopropyl-3-methoxybenzyl)-2-(2-isopropylphenyl)piperazin-1-yl)-7-azaspiro[3.5]nonan-7-yl)-2-((6-ethoxy-3-fluoro-1H-pyrrolo[2,3-b]pyridin-5-yl)oxy)-N-((6-((((1r,4r)-4-hydroxy-4-methylcyclohexyl)methyl)amino)-5-nitropyridin-3-yl)sulfonyl)benzamide]	1	1	1	–	–	–
CC(C)c1ccccc1[C@@H]1CN(Cc2ccnc(Cl)c2)CCN1C1CC2(CCN(c3ccc(C(=O)NS(=O)(=O)c4cnc(NC[C@H]5CC[C@](C)(O)CC5)c([N+](=O)[O-])c4)c(Oc4cnc5[nH]cc(F)c5c4)c3)CC2)C1 [Example 358, 4-(2-((R)-4-((2-chloropyridin-4-yl)methyl)-2-(2-isopropylphenyl)piperazin-1-yl)-7-azaspiro[3.5]nonan-7-yl)-2-((3-fluoro-1H-pyrrolo[2,3-b]pyridin-5-yl)oxy)-N-((6-((((1r,4r)-4-hydroxy-4-methylcyclohexyl)methyl)amino)-5-nitropyridin-3-yl)sulfonyl)benzamide]	1	1	2	–	–	–
COc1nc2[nH]cc(F)c2cc1Oc1cc(N2CCC3(CC2)CC(N2CCN(Cc4ccnc(C)c4)C[C@H]2c2ccccc2C(C)C)C3)ccc1C(=O)NS(=O)(=O)c1cnc(NC[C@H]2CC[C@](C)(O)CC2)c([N+](=O)[O-])c1 [Example 355, 2-((3-fluoro-6-methoxy-1H-pyrrolo[2,3-b]pyridin-5-yl)oxy)-N-((6-((((1r,4r)-4-hydroxy-4-methylcyclohexyl)methyl)amino)-5-nitropyridin-3-yl)sulfonyl)-4-(2-((R)-2-(2-isopropylphenyl)-4-((2-methylpyridin-4-yl)methyl)piperazin-1-yl)-7-azaspiro[3.5]nonan-7-yl)benzamide]	1	1	1	–	–	–
CCOc1nc2[nH]cc(F)c2cc1Oc1cc(N2CCC3(CC2)CC(N2CCN(Cc4ccc(OC)c5oc(C)cc45)C[C@H]2c2ccccc2C(C)C)C3)ccc1C(=O)NS(=O)(=O)c1cnc(NC[C@H]2CC[C@](C)(O)CC2)c([N+](=O)[O-])c1 [Example 14, 2-((6-ethoxy-3-fluoro-1H-pyrrolo[2,3-b]pyridin-5-yl)oxy)-N-((6-((((1r,4r)-4-hydroxy-4-methylcyclohexyl)methyl)amino)-5-nitropyridin-3-yl)sulfonyl)-4-(2-((R)-2-(2-isopropylphenyl)-4-((7-methoxy-2-methylbenzofuran-4-yl)methyl)piperazin-1-yl)-7-azaspiro[3.5]nonan-7-yl)benzamide]	1	1	1	–	–	–
